Laboratory results from patent publication US9725448B2, “Neprilysin inhibitors” (THERAVANCE BIOPHARMA R&D IP, LLC, priority 2011, dated 2017).

Molecular target: T1, human NEP (Homo sapiens, UniProt P08473)
T1 construct: purchased R&D Systems, Minneapolis, Minn; 1182-ZN
Assay: In vitro enzyme inhibition assay at human NEP (fluorogenic peptide substrate)
Format: biochemical
Details: pKi values at human NEP (recombinant), given as ranges
Description: The inhibitory activities of compounds at human and rat neprilysin (EC 3.4.24.11; NEP) and human angiotensin converting enzyme (ACE) were determined using in vitro assays as described below.
Recombinant human NEP and recombinant human ACE were obtained commercially (R&D Systems, Minneapolis, Minn., catalog numbers 1182-ZN and 929-ZN, respectively). The fluorogenic peptide substrate Mca-D-Arg-Arg-Leu-Dap-(Dnp)-OH (Medeiros et al. (1997) Braz. J. Med. Biol. Res. 30:1157-62; Anaspec, San Jose, Calif.) and Abz-Phe-Arg-Lys(Dnp)-Pro-OH (Araujo et al. (2000) Biochemistry 39:8519-8525; Bachem, Torrance, Calif.) were used in the NEP and ACE assays respectively.
The assays were performed in 384-well white opaque plates at 37° C. using the fluorogenic peptide substrates at a concentration of 10 μM in Assay Buffer (NEP: 50 mM HEPES, pH 7.5, 100 mM NaCl, 0.01% polyethylene glycol sorbitan monolaurate (Tween-20), […]; ACE: 50 mM HEPES, pH 7.5, 100 mM NaCl, 0.01% Tween-20, 1 μM ZnSO4).
Test compounds were assayed over the range of concentrations from 10 μM to 20 pM. Test compounds were added to the enzymes and incubated for 30 minute at 37° C. prior to initiating the reaction by the addition of substrate. Reactions were terminated after 20 minutes of incubation at 37° C. by the addition of glacial acetic acid to a final concentration of 3.6% (v/v).
Plates were read on a fluorometer with excitation and emission wavelengths set to 320 nm and 405 nm, respectively. Inhibition constants were obtained by nonlinear regression of the data using the equation (GraphPad Software, Inc., San Diego, Calif.): ν=ν0/[1+(I/K′)] where ν is the reaction rate, ν0 is the uninhibited reaction rate, I is the inhibitor concentration and K′ is the apparent inhibition constant.
Compounds of the invention were tested in this assay and found to have pKi values at human NEP as follows.

T1 sequence (P08473 52-750 limits assumed): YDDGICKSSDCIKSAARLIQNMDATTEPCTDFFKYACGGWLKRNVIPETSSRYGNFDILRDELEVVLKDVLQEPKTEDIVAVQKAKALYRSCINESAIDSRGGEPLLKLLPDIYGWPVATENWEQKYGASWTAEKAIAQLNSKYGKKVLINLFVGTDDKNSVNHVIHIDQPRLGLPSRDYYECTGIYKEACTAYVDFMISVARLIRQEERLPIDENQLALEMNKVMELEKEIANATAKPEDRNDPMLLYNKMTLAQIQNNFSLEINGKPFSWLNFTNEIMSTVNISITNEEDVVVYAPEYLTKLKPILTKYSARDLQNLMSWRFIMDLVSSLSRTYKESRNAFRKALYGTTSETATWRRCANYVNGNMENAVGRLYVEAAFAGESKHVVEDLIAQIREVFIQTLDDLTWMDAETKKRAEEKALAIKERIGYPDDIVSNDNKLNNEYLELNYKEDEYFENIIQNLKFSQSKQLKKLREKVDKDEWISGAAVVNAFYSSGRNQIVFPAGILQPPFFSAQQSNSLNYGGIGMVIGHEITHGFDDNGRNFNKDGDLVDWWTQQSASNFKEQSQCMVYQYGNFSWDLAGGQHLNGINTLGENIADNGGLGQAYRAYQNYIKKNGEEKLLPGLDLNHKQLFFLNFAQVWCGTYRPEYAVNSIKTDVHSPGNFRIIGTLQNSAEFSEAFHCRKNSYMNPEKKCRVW

| Compound | Ki |
| --- | --- |
| C[C@@](O)(C[C@@H](Cc1ccc(-c2ccccc2)cc1)NC(=O)c1cnn[nH]1)C(=O)O [Example 1B, (2R,4R)-5-Biphenyl-4-yl-2-hydroxy-2-methyl-4-[(3H-[1,2,3]triazole-4-carbonyl)-amino]-pentanoic acid] | 0.00126 to 0.01 µM |
| C[C@](O)(C[C@@H](Cc1ccc(-c2ccccc2)cc1)NC(=O)c1cnn[nH]1)C(=O)O [Example 2-1, (2S,4R)-5-Biphenyl-4-yl-2-hydroxy-2-methyl-4-[(3H-[1,2,3]triazole-4-carbonyl)-amino]-pentanoic acid] | 0.0126 to 0.1 µM |
| CC(O)(C[C@@H](Cc1ccc(-c2ccccc2)cc1)NC(=O)c1nc[nH]n1)C(=O)O (stereo partly drawn) [Example 2-2, (R)-5-Biphenyl-4-yl-2-hydroxy-2-methyl-4-[(2H-[1,2,4]triazole-3-carbonyl)-amino]-pentanoic acid] | 0.0126 to 0.1 µM |
| CC(O)(C[C@@H](Cc1ccc(-c2ccccc2)cc1)NC(=O)c1n[nH]c(Cl)n1)C(=O)O (stereo partly drawn) [Example 2-3, (R)-5-Biphenyl-4-yl-4-[(5-chloro-2H-[1,2,4]triazole-3-carbonyl)-amino]-2-hydroxy-2-methyl-pentanoic acid] | 0.0126 to 0.1 µM |
| CC(O)(C[C@@H](Cc1ccc(-c2ccccc2)cc1)NC(=O)c1cc(F)c2nn[nH]c2c1)C(=O)O (stereo partly drawn) [Example 2-4, (R)-5-Biphenyl-4-yl-4-[(7-fluoro-3H-benzotriazole-5-carbonyl)-amino]-2-hydroxy-2-methyl-pentanoic acid] | 0.00126 to 0.01 µM |
| CC(O)(C[C@@H](Cc1ccc(-c2ccccc2)cc1)NC(=O)c1cc(Cl)c2nn[nH]c2c1)C(=O)O (stereo partly drawn) [Example 2-5, (R)-5-Biphenyl-4-yl-4-[(7-chloro-3H-benzotriazole-5-carbonyl)-amino]-2-hydroxy-2-methyl-pentanoic acid] | 0.00126 to 0.01 µM |
| C[C@](O)(C[C@@H](Cc1ccc(-c2ccccc2)cc1)NC(=O)c1cnc2nn[nH]c2c1)C(=O)O [Example 2-6, (2S,4R)-5-Biphenyl-4-yl-2-hydroxy-2-methyl-4-[(1H-[1,2,3]triazolo[4,5-b]pyridine-6-carbonyl)-amino]-pentanoic acid] | 0.0126 to 0.1 µM |
| CC(O)(C[C@@H](Cc1ccc(-c2ccccc2)cc1)NC(=O)c1cc(O)no1)C(=O)O (stereo partly drawn) [Example 2-7, (R)-5-Biphenyl-4-yl-2-hydroxy-4-[(3-hydroxy-isoxazole-5-carbonyl)-amino]-2-methyl-pentanoic acid] | ≤ 0.001 µM |
| C[C@@](O)(C[C@@H](Cc1ccc(-c2ccccc2)cc1)NC(=O)c1cnc(O)nc1)C(=O)O [Example 2-9, (2R,4R)-5-Biphenyl-4-yl-2-hydroxy-4-[(2-hydroxy-pyrimidine-5-carbonyl)-amino]-2-methyl-pentanoic acid] | ≤ 0.001 µM |
| C[C@](O)(C[C@@H](Cc1ccc(-c2ccccc2)cc1)NC(=O)c1cnc(O)nc1)C(=O)O [Example 2-10, (2S,4R)-5-Biphenyl-4-yl-2-hydroxy-4-[(2-hydroxy-pyrimidine-5-carbonyl)-amino]-2-methyl-pentanoic acid] | 0.00126 to 0.01 µM |
| C[C@](O)(C[C@@H](Cc1ccc(-c2ccccc2)cc1)NC(=O)c1cc(C(=O)O)[nH]n1)C(=O)O [Example 2-11, 5-((1R,3S)-1-Biphenyl-4-ylmethyl-3-carboxy-3-hydroxy-butylcarbamoyl)-2H-pyrazole-3-carboxylic acid] | 0.00126 to 0.01 µM |
| CC(O)(C[C@@H](Cc1ccc(-c2ccccc2)cc1)NC(=O)c1cc(O)n[nH]1)C(=O)O (stereo partly drawn) [Example 2-12, (R)-5-Biphenyl-4-yl-2-hydroxy-4-[(5-hydroxy-2H-pyrazole-3-carbonyl)-amino]-2-methyl-pentanoic acid] | 0.00126 to 0.01 µM |
| C[C@@](O)(C[C@@H](Cc1ccc(-c2ccccc2)cc1)NC(=O)c1cc(C(=O)O)n[nH]1)C(=O)O [Example 2-13, 5-((1R,3R)-1-Biphenyl-4-ylmethyl-3-carboxy-3-hydroxy-butylcarbamoyl)-1H-pyrazole-3-carboxylic acid] | ≤ 0.001 µM |
| CC(O)(CN(Cc1ccc(-c2ccccc2)cc1)NC(=O)c1cc(O)no1)C(=O)O (stereo not shown) [Example 3B, 3-[N-Biphenyl-4-ylmethyl-N′-(3-hydroxy-isoxazole-5-carbonyl)-hydrazino]-2-hydroxy-2-methyl-propionic acid] | 0.00126 to 0.01 µM |
| CC(O)(CN(Cc1ccc(-c2ccccc2)cc1)NC(=O)c1cnn[nH]1)C(=O)O (stereo not shown) [Example 4-1, 3-[N-Biphenyl-4-ylmethyl-N′-(3H-[1,2,3]triazole-4-carbonyl)-hydrazino]-2-hydroxy-2-methyl-propionic acid] | 0.0126 to 0.1 µM |
| CC(O)(CN(Cc1ccc(-c2ccccc2)cc1)NC(=O)c1nnc(Cl)[nH]1)C(=O)O (stereo not shown) [Example 4-2, 3-[N-Biphenyl-4-ylmethyl-N′-(5-chloro-4H-[1,2,4]triazole-3-carbonyl)-hydrazino]-2-hydroxy-2-methyl-propionic acid] | 0.126 to 1 µM |
| COc1cc(C(=O)NN(Cc2ccc(-c3ccccc3)cc2)CC(C)(O)C(=O)O)on1 (stereo not shown) [Example 4-3, 3-[N-Biphenyl-4-ylmethyl-N′-(3-methoxy-isoxazole-5-carbonyl)-hydrazino]-2-hydroxy-2-methyl-propionic acid] | 0.126 to 1 µM |
| CC(O)(CN(Cc1ccc(-c2ccccc2)cc1)NC(=O)c1cnc(O)nc1)C(=O)O (stereo not shown) [Example 4-4, 3-[N-Biphenyl-4-ylmethyl-N′-(2-hydroxy-pyrimidine-5-carbonyl)-hydrazino]-2-hydroxy-2-methyl-propionic acid] | 0.0126 to 0.1 µM |
| CC(O)(CN(Cc1ccc(-c2ccccc2)cc1)NC(=O)c1cc(O)n[nH]1)C(=O)O (stereo not shown) [Example 4-5, 3-[N-Biphenyl-4-ylmethyl-N′-(5-hydroxy-2H-pyrazole-3-carbonyl)-hydrazino]-2-hydroxy-2-methyl-propionic acid] | 0.0126 to 0.1 µM |
| CC(O)(CN(Cc1ccc(-c2ccccc2)cc1)NC(=O)c1cc(C(=O)O)n[nH]1)C(=O)O (stereo not shown) [Example 4-6, 5-[N′-Biphenyl-4-ylmethyl-N′-(2-carboxy-2-hydroxy-propyl)-hydrazinocarbonyl]-1H-pyrazole-3-carboxylic acid] | 0.00126 to 0.01 µM |
| CN(C)C(=O)c1cc(C(=O)NN(Cc2ccc(-c3ccccc3)cc2)CC(C)(O)C(=O)O)[nH]n1 (stereo not shown) [Example 4-7, 3-[N-Biphenyl-4-ylmethyl-N′-(5-dimethylcarbamoyl-2H-pyrazole-3-carbonyl)-hydrazino]-2-hydroxy-2-methyl-propionic acid] | 0.0126 to 0.1 µM |
| CC(O)(CN(Cc1ccc(-c2ccccc2)cc1)NC(=O)c1cc(C(=O)N2CCCC2)n[nH]1)C(=O)O (stereo not shown) [Example 4-8, 3-{N-Biphenyl-4-ylmethyl-N′-[5-(pyrrolidine-1-carbonyl)-2H-pyrazole-3-carbonyl]-hydrazino}-2-hydroxy-2-methyl-propionic acid] | 0.0126 to 0.1 µM |
| CC(O)(CN(Cc1ccc(-c2cccc(F)c2)cc1)NC(=O)c1cc(O)no1)C(=O)O (stereo not shown) [Example 5, 3-[N-(3′-Fluorobiphenyl-4-ylmethyl)-N′-(3-hydroxy-isoxazole-5-carbonyl)-hydrazino]-2-hydroxy-2-methyl-propionic Acid] | 0.00126 to 0.01 µM |
| C[C@@](O)(CN(Cc1ccc(-c2cc(Cl)ccc2F)cc1)NC(=O)c1cc(O)no1)C(=O)O [Example 6A, (R)-3-[N-(5′-Chloro-2′-fluorobiphenyl-4-ylmethyl)-N′-(3-hydroxy-isoxazole-5-carbonyl)-hydrazino]-2-hydroxy-2-methyl-propionic acid] | ≤ 0.001 µM |
| C[C@@](O)(CN(Cc1ccc(-c2cccc(Cl)c2)cc1)NC(=O)c1cnn[nH]1)C(=O)O [Example 7-1, (R)-3-[N-(3′-Chlorobiphenyl-4-ylmethyl)-N′-(3H-[1,2,3]triazole-4-carbonyl)-hydrazino]-2-hydroxy-2-methyl-propionic acid] | 0.00126 to 0.01 µM |
| C[C@@](O)(CN(Cc1ccc(-c2cccc(Cl)c2)cc1)NC(=O)c1cn(O)nn1)C(=O)O [Example 7-2, (R)-3-[N-(3′-Chlorobiphenyl-4-ylmethyl)-N′-(1-hydroxy-1H-[1,2,3]triazole-4-carbonyl)-hydrazino]-2-hydroxy-2-methyl-propionic acid] | 0.00126 to 0.01 µM |
| C[C@@](O)(CN(Cc1ccc(-c2cc(Cl)ccc2F)cc1)NC(=O)c1cn(O)nn1)C(=O)O [Example 7-3, (R)-3-[N-(5′-Chloro-2′-fluorobiphenyl-4-ylmethyl)-N′-(1-hydroxy-1H-[1,2,3]triazole-4-carbonyl)-hydrazino]-2-hydroxy-2-methyl-propionic acid] | ≤ 0.001 µM |
| C[C@@](O)(CN(Cc1ccc(-c2cccc(Cl)c2)cc1)NC(=O)c1cc(-c2cnccn2)n[nH]1)C(=O)O [Example 7-8, (R)-3-[N-(3′-Chlorobiphenyl-4-ylmethyl)-N′-(5-pyrazin-2-yl-2H-pyrazole-3-carbonyl)-hydrazino]-2-hydroxy-2-methyl-propionic acid] | 0.0126 to 0.1 µM |
